Test results reported in US11285127B2, “Compositions and methods for lowering triglycerides without raising LDL-C levels in a subject on concomitant statin therapy” (Amarin Pharmaceuticals Ireland Limited, priority 2013, dated 2022).

Tested on: patients with fasting triglyceride levels >200 mg/dl and <500 mg/dl despite statin therapy
Assay: 12-week study: red blood cell fatty acids (EPA concentration, FADI ratios) by gas chromatography/flame ionization detection
Format: in vivo, human
Settings: 4 g/day, placebo-adjusted, 12 weeks
Experimental: A multi-center, placebo-controlled, randomized, double-blind, 12-week study was performed to evaluate the efficacy and safety of >96% E-EPA in patients with fasting triglyceride levels >200 mg/dl and <500 mg/dl despite statin therapy (the mean of two qualifying entry values needed to be >185 mg/dl and at least one of the values needed to be >200 mg/dl). The primary objective of the study was to determine the efficacy of >96% E-EPA 2 g daily and 4 g daily, compared to placebo, in lowering fasting TG levels in patients with high risk for cardiovascular disease and with fasting TG levels 200 mg/dl and <500 mg/dl, despite treatment to LDL-C goal on statin therapy. The secondary objectives of this study were the following: • 1. To determine the safety and tolerability of >96% E-EPA 2 g daily and 4 g daily; • 2. To determine the effect of >96% E-EPA on lipid and apolipoprotein profiles including total cholesterol (TC), non-high-density lipoprotein cholesterol (non-HDL-C), low density lipoprotein cholesterol (LDL-C), high density lipoprotein cholesterol (HDL-C), and […]; • 3. To determine the effect of >96% E-EPA on lipoprotein associated phospholipase A2 (Lp-PLA2) from baseline to week 12; • 4. To determine the effect of >96% E-EPA on low-density lipoprotein (LDL) particle number and size; • 5. […]

CC/C=C\C/C=C\C/C=C\C/C=C\C/C=C\CCCC(=O)OCC [AMR101, ethyl eicosapentaenoate]
FADI-16 (Palmitoleic acid/Palmitic acid, C16:1/C16:0), % Change, RBCs: −15.7% | FADI-18 (Oleic acid/Stearic Acid, C18:1/C18:0), % Change, RBCs: −3.1%
